Here are results for 2 compounds from article PMC6558518 (Angewandte Chemie (International ed. in English), 2018).

Series [1] concerns HeLa cells. Put plainly: MTT assay of cell viability / anti-proliferative activity. In kind it is cell-based. On the technique in general: Tetrazolium dyes change colour on reduction, which living cells bring about.
Series [2] has as its system HeLa cells. Put plainly: Mitochondrial membrane potential with JC-10 dye. The settings on record: 20 μM.

With `COC1=C2C[C@@H](C)C[C@H](OC)[C@H](O)[C@@H](C)/C=C(\C)[C@H](OC(N)=O)[C@@H](OC)/C=C\C=C(/C)C(=O)NC(=CC1=O)C2=O` [GA, Geldanamycin], the “inhibitor concentration at which maximum inhibition was reached” value with HeLa cells [1] (HeLa cells) was 0.3 µM. Also, in the series on HeLa cells [1] (at saturating concentrations), the “maximum inhibition in HeLa cell viability” value is reported as ~ 40%.

In the case of “p-trifluoromethoxy carbonyl cyanide phenyl hydrazone [FCCP]”, the “increase of F520/F590 ratio above the normal value” in the series on HeLa cells [2] was “up to 7 fold”.
